In patent US20250163066A1, “PROTACs of MALT1” (TEGID THERAPEUTICS, INC., priority 2022, published 2025):

The compounds below were run against MALT1 (Homo sapiens (Human), UniProt Q9UDY8) (assay: MALT1 enzymatic activity inhibition (fluorescence, Ac-LRSR-AMC substrate)). Conditions: recombinant MALT1 1.5 ng/μl, Ac-LRSR-AMC 1 μM.
Type: biochemical
Outline: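 Recombinant human MALT1 (1.5 ng/μl final) preincubated 10 min at rt with compounds in 50 mM HEPES pH 7.2-7.4, 100 mM NaCl, 900 mM sodium citrate, 10 mM DTT; 1 μM Ac-LRSR-AMC then added. AMC fluorescence read at start and after 30 min 37 °C plus 30 min rt; difference gives signal, % inhibition fitted to IC50.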

MALT1, sequence (Q9UDY8 whole entry): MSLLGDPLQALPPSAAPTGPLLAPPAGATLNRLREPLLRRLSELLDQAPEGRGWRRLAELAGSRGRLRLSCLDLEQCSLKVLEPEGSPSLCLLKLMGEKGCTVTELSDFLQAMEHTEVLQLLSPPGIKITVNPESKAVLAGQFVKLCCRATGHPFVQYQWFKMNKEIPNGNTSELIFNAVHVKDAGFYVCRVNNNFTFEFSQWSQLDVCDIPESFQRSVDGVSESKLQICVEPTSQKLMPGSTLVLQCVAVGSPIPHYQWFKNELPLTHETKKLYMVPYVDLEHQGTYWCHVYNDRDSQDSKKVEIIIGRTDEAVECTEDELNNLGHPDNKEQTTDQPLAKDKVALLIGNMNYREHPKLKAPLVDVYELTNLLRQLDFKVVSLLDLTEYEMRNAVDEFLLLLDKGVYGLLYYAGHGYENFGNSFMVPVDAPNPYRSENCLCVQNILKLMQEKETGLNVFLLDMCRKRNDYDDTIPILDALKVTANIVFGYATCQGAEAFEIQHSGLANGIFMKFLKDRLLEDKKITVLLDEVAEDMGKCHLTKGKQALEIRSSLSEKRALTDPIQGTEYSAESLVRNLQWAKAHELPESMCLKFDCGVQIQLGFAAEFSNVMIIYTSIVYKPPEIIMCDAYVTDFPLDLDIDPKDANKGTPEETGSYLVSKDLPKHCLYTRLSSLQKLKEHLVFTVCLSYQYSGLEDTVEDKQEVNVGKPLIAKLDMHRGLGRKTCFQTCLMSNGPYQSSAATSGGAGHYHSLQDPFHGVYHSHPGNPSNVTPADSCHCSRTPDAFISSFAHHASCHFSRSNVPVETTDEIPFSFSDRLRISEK

`CC(C)c1c(NC(=O)Nc2ccc(-c3nnc(CCCCCCN4CCN(c5ccc6c(c5)CN(C5CCC(=O)NC5=O)C6=O)CC4)s3)nc2)cnc2ccnn12` (centres unmarked) [Compound 142, 1-[6-[5-[6-[4-[2-(2,6-dioxo-3-piperidyl)-1-oxo-isoindolin-5-yl]piperazin-1-yl]hexyl]-1,3,4-thiadiazol-2-yl]-3-pyridyl]-3-(7-isopropylpyrazolo[1,5-a]pyrimidin-6-yl)urea] and `O=C1CCC(N2Cc3cc(N4CCN(CCCCCCc5nnc(-c6ccc(NC(=O)Nc7cnc8ccnn8c7C7CCCC7)cn6)s5)CC4)ccc3C2=O)C(=O)N1` (centres unmarked) [Compound 143, 1-(7-cyclopentylpyrazolo[1,5-a]pyrimidin-6-yl)-3-[6-[5-[6-[4-[2-(2,6-dioxo-3-piperidyl)-1-oxo-isoindolin-5-yl]piperazin-1-yl]hexyl]-1,3,4-thiadiazol-2-yl]-3-pyridyl]urea] fall in the same range of EC50: 1 to 5 µM for the first, 1 to 5 µM for the second.

`Cc1cc(NC(=O)Nc2cnc3ccnn3c2C(C)C)cnc1-c1noc(CCCC(=O)N2CCN(c3ccc4c(c3)CN(C3CCC(=O)N(C)C3=O)C4=O)CC2)n1` (centres unmarked) [Compound 144, 1-(7-isopropylpyrazolo[1,5-a]pyrimidin-6-yl)-3-[5-methyl-6-[5-[4-[4-[2-(1-methyl-2,6-dioxo-3-piperidyl)-1-oxo-isoindolin-5-yl]piperazin-1-yl]-4-oxo-butyl]-1,2,4-oxadiazol-3-yl]-3-pyridyl]urea] and `Cc1cc(NC(=O)Nc2cnc3ccnn3c2C(C)C)cnc1-c1noc(CCCCC(=O)N2CCN(c3ccc4c(c3)CN(C3CCC(=O)N(C)C3=O)C4=O)CC2)n1` (centres unmarked) [Compound 145, 1-(7-isopropylpyrazolo[1,5-a]pyrimidin-6-yl)-3-[5-methyl-6-[5-[5-[4-[2-(1-methyl-2,6-dioxo-3-piperidyl)-1-oxo-isoindolin-5-yl]piperazin-1-yl]-5-oxo-pentyl]-1,2,4-oxadiazol-3-yl]-3-pyridyl]urea] cannot be ordered by EC50: no more than 0.2 µM for the first, no more than 0.2 µM for the second.

`Cc1cc(NC(=O)Nc2cnc3ccnn3c2C(C)C)cnc1-c1noc(CCCCCC(=O)N2CCN(c3ccc4c(c3)CN(C3CCC(=O)N(C)C3=O)C4=O)CC2)n1` (centres unmarked) [Compound 146, 1-(7-isopropylpyrazolo[1,5-a]pyrimidin-6-yl)-3-[5-methyl-6-[5-[6-[4-[2-(1-methyl-2,6-dioxo-3-piperidyl)-1-oxo-isoindolin-5-yl]piperazin-1-yl]-6-oxo-hexyl]-1,2,4-oxadiazol-3-yl]-3-pyridyl]urea] and `Cc1cc(NC(=O)Nc2cnc3ccnn3c2C(C)C)cnc1-c1noc(CCCC(=O)N2CCN(c3ccc4c(c3)CN(C3CCC(=O)N(COC(=O)C(C)(C)C)C3=O)C4=O)CC2)n1` (centres unmarked) [Compound 149, [3-[5-[4-[4-[3-[5-[(7-isopropylpyrazolo[1,5-a]pyrimidin-6-yl)carbamoylamino]-3-methyl-2-pyridyl]-1,2,4-oxadiazol-5-yl]butanoyl]piperazin-1-yl]-1-oxo-isoindolin-2-yl]-2,6-dioxo-1-piperidyl]methyl 2,2-dimethylpropanoate] cannot be ordered by EC50: no more than 0.2 µM for the first, no more than 0.2 µM for the second.

First: CCCCOP(=O)(OCCCC)OCN1C(=O)CCC(N2Cc3cc(N4CCN(C(=O)CCCCc5nc(-c6ncc(NC(=O)Nc7cnc8ccnn8c7C(C)C)cc6C)no5)CC4)ccc3C2=O)C1=O (centres unmarked) [Compound 147, dibutyl [3-[5-[4-[5-[3-[5-[(7-isopropylpyrazolo[1,5-a]pyrimidin-6-yl)carbamoylamino]-3-methyl-2-pyridyl]-1,2,4-oxadiazol-5-yl]pentanoyl]piperazin-1-yl]-1-oxo-isoindolin-2-yl]-2,6-dioxo-1-piperidyl]methyl phosphate]
Second: CCCCOP(=O)(OCCCC)OCN1C(=O)CCC(N2Cc3cc(N4CCN(C(=O)CCCCCc5nc(-c6ncc(NC(=O)Nc7cnc8ccnn8c7C(C)C)cc6C)no5)CC4)ccc3C2=O)C1=O (centres unmarked) [Compound 148, dibutyl [3-[5-[4-[6-[3-[5-[(7-isopropylpyrazolo[1,5-a]pyrimidin-6-yl)carbamoylamino]-3-methyl-2-pyridyl]-1,2,4-oxadiazol-5-yl]hexanoyl]piperazin-1-yl]-1-oxo-isoindolin-2-yl]-2,6-dioxo-1-piperidyl]methyl phosphate]
The EC50 of the first is lower: no more than 0.2 µM for the first, 0.5 to 1 µM for the second.

Compared with `Cc1cc(NC(=O)Nc2cnc3ccnn3c2C(C)(C)C)cnc1-c1noc(CCCCCN2CCN(c3ccc4c(c3)CN(C3CCC(=O)NC3=O)C4=O)CC2)n1` (centres unmarked) [Compound 150, 1-(7-tert-butylpyrazolo[1,5-a]pyrimidin-6-yl)-3-[6-[5-[5-[4-[2-(2,6-dioxo-3-piperidyl)-1-oxo-isoindolin-5-yl]piperazin-1-yl]pentyl]-1,2,4-oxadiazol-3-yl]-5-methyl-3-pyridyl]urea], `O=C1CCC(N2Cc3cc(N4CCN(CCCCCc5nc(-c6ncc(NC(=O)Nc7cnc8ccnn8c7C7CC7)cc6Cl)no5)CC4)ccc3C2=O)C(=O)N1` (centres unmarked) [Compound 161, 1-[5-chloro-6-[5-[5-[4-[2-(2,6-dioxo-3-piperidyl)-1-oxo-isoindolin-5-yl]piperazin-1-yl]pentyl]-1,2,4-oxadiazol-3-yl]-3-pyridyl]-3-(7-cyclopropylpyrazolo[1,5-a]pyrimidin-6-yl)urea] is lower in EC50: 1 to 5 µM for the first, no more than 0.2 µM for the second. The second is the more potent here.

`O=C1CCC(N2Cc3cc(N4CCN(C(=O)CCCCn5cc(NC(=O)Nc6cnc7ccnn7c6C6CCCC6)c(C(F)(F)F)n5)CC4)ccc3C2=O)C(=O)N1` (centres unmarked) [Compound 151, 1-(7-cyclopentylpyrazolo[1,5-a]pyrimidin-6-yl)-3-[1-[5-[4-[2-(2,6-dioxo-3-piperidyl)-1-oxo-isoindolin-5-yl]piperazin-1-yl]-5-oxo-pentyl]-3-(trifluoromethyl)pyrazol-4-yl]urea] and `O=C1CCC(N2Cc3cc(N4CCN(C(=O)CCCCn5cc(NC(=O)Nc6cnc7ccnn7c6C6CCC6)c(C(F)(F)F)n5)CC4)ccc3C2=O)C(=O)N1` (centres unmarked) [Compound 152, 1-(7-cyclobutylpyrazolo[1,5-a]pyrimidin-6-yl)-3-[1-[5-[4-[2-(2,6-dioxo-3-piperidyl)-1-oxo-isoindolin-5-yl]piperazin-1-yl]-5-oxo-pentyl]-3-(trifluoromethyl)pyrazol-4-yl]urea] fall in the same range of EC50: 1 to 5 µM for the first, 1 to 5 µM for the second.

`Cc1cc(NC(=O)Nc2cnc3ccnn3c2C(C)C)cnc1-c1nnc(CCCCCC(=O)N2CCN(c3ccc4c(c3)CN(C3CCC(=O)NC3=O)C4=O)CC2)s1` (centres unmarked) [Compound 153, 1-[6-[5-[6-[4-[2-(2,6-dioxo-3-piperidyl)-1-oxo-isoindolin-5-yl]piperazin-1-yl]-6-oxo-hexyl]-1,3,4-thiadiazol-2-yl]-5-methyl-3-pyridyl]-3-(7-isopropylpyrazolo[1,5-a]pyrimidin-6-yl)urea] and `Cc1cc(NC(=O)Nc2cnc3ccnn3c2C(C)C)cnc1-c1nnc(CCCCC(=O)N2CCN(c3ccc4c(c3)CN(C3CCC(=O)NC3=O)C4=O)CC2)s1` (centres unmarked) [Compound 154, 1-[6-[5-[5-[4-[2-(2,6-dioxo-3-piperidyl)-1-oxo-isoindolin-5-yl]piperazin-1-yl]-5-oxo-pentyl]-1,3,4-thiadiazol-2-yl]-5-methyl-3-pyridyl]-3-(7-isopropylpyrazolo[1,5-a]pyrimidin-6-yl)urea] fall in the same range of EC50: 0.2 to 0.5 µM for the first, 0.2 to 0.5 µM for the second.

`O=C1CCC(N2Cc3cc(N4CCN(C(=O)CCCCn5cc(NC(=O)Nc6cnc7ccnn7c6C6CCCO6)c(C(F)(F)F)n5)CC4)ccc3C2=O)C(=O)N1` (centres unmarked) [Compound 155, 1-[1-[5-[4-[2-(2,6-dioxo-3-piperidyl)-1-oxo-isoindolin-5-yl]piperazin-1-yl]-5-oxo-pentyl]-3-(trifluoromethyl)pyrazol-4-yl]-3-(7-tetrahydrofuran-2-ylpyrazolo[1,5-a]pyrimidin-6-yl)urea] and `CC(C)c1c(NC(=O)Nc2cn(CCCCC(=O)N3CCN(c4ccc5c(c4)CN(C4CCC(=O)NC4=O)C5=O)CC3)nc2C(F)(F)F)cnc2ccnn12` (centres unmarked) [Compound 157, 1-[1-[5-[4-[2-(2,6-dioxo-3-piperidyl)-1-oxo-isoindolin-5-yl]piperazin-1-yl]-5-oxo-pentyl]-3-(trifluoromethyl)pyrazol-4-yl]-3-(7-isopropylpyrazolo[1,5-a]pyrimidin-6-yl)urea] cannot be ordered by EC50: greater than 5 µM for the first, greater than 5 µM for the second.

First: O=C1CCC(N2Cc3cc(N4CCN(CCCCCn5cc(NC(=O)Nc6cnc7ccnn7c6C6CCC6)c(C(F)(F)F)n5)CC4)ccc3C2=O)C(=O)N1 (centres unmarked) [Compound 156, 1-(7-cyclobutylpyrazolo[1,5-a]pyrimidin-6-yl)-3-[1-[5-[4-[2-(2,6-dioxo-3-piperidyl)-1-oxo-isoindolin-5-yl]piperazin-1-yl]pentyl]-3-(trifluoromethyl)pyrazol-4-yl]urea]
Second: O=C1CCC(N2Cc3cc(N4CCN(CCCCCCc5nc(-c6ncc(NC(=O)Nc7cnc8ccnn8c7C7CC7)cc6Cl)no5)CC4)ccc3C2=O)C(=O)N1 (centres unmarked) [Compound 159, 1-[5-chloro-6-[5-[6-[4-[2-(2,6-dioxo-3-piperidyl)-1-oxo-isoindolin-5-yl]piperazin-1-yl]hexyl]-1,2,4-oxadiazol-3-yl]-3-pyridyl]-3-(7-cyclopropylpyrazolo[1,5-a]pyrimidin-6-yl)urea]
The EC50 of the first is higher: greater than 5 µM for the first, no more than 0.2 µM for the second.

`O=C1CCC(N2Cc3cc(N4CCN(C(=O)CCCCCc5nc(-c6ncc(NC(=O)Nc7cnc8ccnn8c7C7CC7)cc6Cl)no5)CC4)ccc3C2=O)C(=O)N1` (centres unmarked) [Compound 158, 1-[5-chloro-6-[5-[6-[4-[2-(2,6-dioxo-3-piperidyl)-1-oxo-isoindolin-5-yl]piperazin-1-yl]-6-oxo-hexyl]-1,2,4-oxadiazol-3-yl]-3-pyridyl]-3-(7-cyclopropylpyrazolo[1,5-a]pyrimidin-6-yl)urea] and `O=C1CCC(N2Cc3cc(N4CCN(C(=O)CCCCc5nc(-c6ncc(NC(=O)Nc7cnc8ccnn8c7C7CC7)cc6Cl)no5)CC4)ccc3C2=O)C(=O)N1` (centres unmarked) [Compound 160, 1-[5-chloro-6-[5-[5-[4-[2-(2,6-dioxo-3-piperidyl)-1-oxo-isoindolin-5-yl]piperazin-1-yl]-5-oxo-pentyl]-1,2,4-oxadiazol-3-yl]-3-pyridyl]-3-(7-cyclopropylpyrazolo[1,5-a]pyrimidin-6-yl)urea] cannot be ordered by EC50: no more than 0.2 µM for the first, no more than 0.2 µM for the second.
